Test system: MV-4-11 cells
Experiment: Gene expression microarray analysis (Affymetrix PrimeView) and GSEA
Assay type: cell-based, human
Design: RFU PODN (11730768_x_at) / Fold change /veh PODN (11730768_x_at) / RFU LINC00158 (11744669_a_at) / Fold change /veh LINC00158 (11744669_a_at) / RFU DUSP10 (11751237_a_at) / Fold change /veh DUSP10 (11751237_a_at) / RFU ID3 (11757404_x_at) / Fold change /veh ID3 (11757404_x_at) / RFU PLEKHG5 (11737974_s_at) / Fold change /veh PLEKHG5 (11737974_s_at) / RFU LRRC4B (11730491_at) / Fold change /veh LRRC4B (11730491_at) / RFU GIMAP4 (11747438_a_at) / Fold change /veh GIMAP4 (11747438_a_at) / RFU KRT8 (11758183_x_at) / Fold change /veh KRT8 (11758183_x_at) / RFU CNN1 (11734310_a_at) / Fold change /veh CNN1 (11734310_a_at) / RFU VPS37D (11726825_at) / Fold change /veh VPS37D (11726825_at) / RFU C10orf10 (11716522_x_at) / Fold change /veh C10orf10 (11716522_x_at) / RFU KIR2DL2 /// KIR2DL4 /// KIR2DL5A /// KIR2DL5B /// KIR2DS1 /// KIR2DS2 /// KIR2DS3 /// KIR2DS4 /// KIR3DL3 /// KIR3DL3 /// KIR3DS1 (11738374_at) / Fold change /veh KIR2DL2 /// KIR2DL4 /// KIR2DL5A /// KIR2DL5B /// KIR2DS1 /// KIR2DS2 /// KIR2DS3 /// KIR2DS4 /// KIR3DL3 /// KIR3DL3 /// KIR3DS1 (11738374_at) / RFU C1QL1 (11718748_at) / Fold change /veh C1QL1 (11718748_at) / RFU TMPRSS4 (11747572_a_at) / Fold change /veh TMPRSS4 (11747572_a_at) / RFU HAMP (11756126_x_at) / Fold change /veh HAMP (11756126_x_at) / RFU RNFT2 (11725882_a_at) / Fold change /veh RNFT2 (11725882_a_at) / RFU NR4A2 (11747474_a_at) / Fold change /veh NR4A2 (11747474_a_at) / RFU ABCC12 (11746883_a_at) / Fold change /veh ABCC12 (11746883_a_at) / RFU TMEM136 (11760407_x_at) / Fold change /veh TMEM136 (11760407_x_at) / RFU CLDN22 /// WWC2 (11732394_at) / Fold change /veh CLDN22 /// WWC2 (11732394_at) / RFU HLA-DPB1 (11760878_x_at) / Fold change /veh HLA-DPB1 (11760878_x_at) / RFU SPINT1 (11716480_a_at) / Fold change /veh SPINT1 (11716480_a_at) / RFU GAP43 (11754022_s_at) / Fold change /veh GAP43 (11754022_s_at) / RFU A4GNT (11735810_at) / Fold change /veh A4GNT (11735810_at) / RFU PRB3 (11715151_x_at) / Fold change /veh PRB3 (11715151_x_at) / RFU TUBB4B (11761932_at) / Fold change /veh TUBB4B (11761932_at) / RFU CAPN14 (11732068_a_at) / Fold change /veh CAPN14 (11732068_a_at) / RFU TMCC2 (11721928_a_at) / Fold change /veh TMCC2 (11721928_a_at) / RFU IRGQ (11745062_a_at) / Fold change /veh IRGQ (11745062_a_at) / RFU FAM174B (11720279_a_at) / Fold change /veh FAM174B (11720279_a_at) / RFU TMPRSS4 (11748680_a_at) / Fold change /veh TMPRSS4 (11748680_a_at) / RFU FAM212B (11763350_a_at) / Fold change /veh FAM212B (11763350_a_at) / RFU PLEKHG5 (11743358_a_at) / Fold change /veh PLEKHG5 (11743358_a_at) / RFU ZSCAN30 (11745921_a_at) / Fold change /veh ZSCAN30 (11745921_a_at) / RFU CMKLR1 (11741424_a_at) / Fold change /veh CMKLR1 (11741424_a_at) / RFU LOC101060620 /// MAPK8IP1 (11723275_at) / Fold change /veh LOC101060620 /// MAPK8IP1 (11723275_at) / RFU SPTSSB (11747773_x_at) / Fold change /veh SPTSSB (11747773_x_at) / RFU PRSS12 (11739890_at) / Fold change /veh PRSS12 (11739890_at) / RFU BIN1 (11741810_x_at) / Fold change /veh BIN1 (11741810_x_at) / RFU WNT11 (11732464_a_at) / Fold change /veh WNT11 (11732464_a_at) / RFU C10orf10 (11716521_a_at) / Fold change /veh C10orf10 (11716521_a_at) / RFU C5orf56 (11738089_at) / Fold change /veh C5orf56 (11738089_at) / RFU CYB561 (11721691_x_at) / Fold change /veh CYB561 (11721691_x_at) / RFU ANKRD19P (11752326_a_at) / Fold change /veh ANKRD19P (11752326_a_at) / RFU OR2T12 /// OR2T33 /// OR2T8 (11738714_s_at) / Fold change /veh OR2T12 /// OR2T33 /// OR2T8 (11738714_s_at) / RFU VCAN (11748164_a_at) / Fold change /veh VCAN (11748164_a_at) / RFU JSRP1 (11732532_at) / Fold change /veh JSRP1 (11732532_at) / RFU KRTAP10-11 (11738290_x_at) / Fold change /veh KRTAP10-11 (11738290_x_at) / RFU MYO3A (11730013_a_at) / Fold change /veh MYO3A (11730013_a_at) / RFU EBF3 (11725865_a_at) / Fold change /veh EBF3 (11725865_a_at) / RFU CAMK2N1 (11719241_x_at) / Fold change /veh CAMK2N1 (11719241_x_at) / RFU C5orf56 (11738088_a_at) / Fold change /veh C5orf56 (11738088_a_at) / RFU OLFML3 (11715873_a_at) / Fold change /veh OLFML3 (11715873_a_at) / RFU LOC100653217 /// NTM (11731650_a_at) / Fold change /veh LOC100653217 /// NTM (11731650_a_at) / RFU MAPK11 (11762145_a_at) / Fold change /veh MAPK11 (11762145_a_at) / RFU FIZ1 (11724087_x_at) / Fold change /veh FIZ1 (11724087_x_at) / RFU OASL (11726364_x_at) / Fold change /veh OASL (11726364_x_at) / RFU SOX15 (11748057_x_at) / Fold change /veh SOX15 (11748057_x_at) / RFU CD79A (11719716_a_at) / Fold change /veh CD79A (11719716_a_at) / RFU HIST1H1D (11736915_at) / Fold change /veh HIST1H1D (11736915_at) / RFU CASKIN2 (11723855_a_at) / Fold change /veh CASKIN2 (11723855_a_at) / RFU LOC730098 (11760151_x_at) / Fold change /veh LOC730098 (11760151_x_at) / RFU OR4N2 (11742367_at) / Fold change /veh OR4N2 (11742367_at) / RFU PRRT2 (11749266_a_at) / Fold change /veh PRRT2 (11749266_a_at) / RFU SNX32 (11753110_a_at) / Fold change /veh SNX32 (11753110_a_at) / RFU CDHR5 (11726645_a_at) / Fold change /veh CDHR5 (11726645_a_at) / RFU RCAN1 (11760418_a_at) / Fold change /veh RCAN1 (11760418_a_at) / RFU FAM167A (11723789_a_at) / Fold change /veh FAM167A (11723789_a_at) / RFU FAM26E (11764081_at) / Fold change /veh FAM26E (11764081_at) / RFU ISYNA1 (11749810_s_at) / Fold change /veh ISYNA1 (11749810_s_at) / RFU ACY1 (11761880_at) / Fold change /veh ACY1 (11761880_at) / RFU 11764098_at / Fold change /veh 11764098_at / RFU SAMD14 (11745864_x_at) / Fold change /veh SAMD14 (11745864_x_at) / RFU NPB (11741838_a_at) / Fold change /veh NPB (11741838_a_at) / RFU TMPRSS6 (11731388_a_at) / Fold change /veh TMPRSS6 (11731388_a_at) / RFU KRTAP10-2 (11738614_at) / Fold change /veh KRTAP10-2 (11738614_at) / RFU ARHGAP8 /// PRR5-ARHGAP8 (11727945_x_at) / Fold change /veh ARHGAP8 /// PRR5-ARHGAP8 (11727945_x_at) / RFU KRTAP5-7 /// NADSYN1 (11734609_at) / Fold change /veh KRTAP5-7 /// NADSYN1 (11734609_at) / RFU RASL12 (11751679_a_at) / Fold change /veh RASL12 (11751679_a_at) / RFU CDKN2B (11736163_a_at) / Fold change /veh CDKN2B (11736163_a_at) / RFU PRF1 (11729649_at) / Fold change /veh PRF1 (11729649_at) / RFU, ZNF638 /// ZNF638-IT1 / Fold change vs veh, ZNF638 /// ZNF638-IT1 / RFU, PANK3 / Fold change vs veh, PANK3 / RFU, SH3YL1 / Fold change vs veh, SH3YL1 / RFU, ZEB2 / Fold change vs veh, ZEB2 / RFU, NRIP1 / Fold change vs veh, NRIP1 / RFU, PTTG1IP / Fold change vs veh, PTTG1IP / RFU, CAPN2 / Fold change vs veh, CAPN2 / RFU, MED14 / Fold change vs veh, MED14 / RFU, SNORA58 / Fold change vs veh, SNORA58 / RFU, C1orf63 / Fold change vs veh, C1orf63 / RFU, LRRFIP1 / Fold change vs veh, LRRFIP1 / RFU, NDUFAF7 / Fold change vs veh, NDUFAF7 / RFU, SLC12A2 / Fold change vs veh, SLC12A2 / RFU, IBTK / Fold change vs veh, IBTK / RFU, ESF1 / Fold change vs veh, ESF1 / Fold change vs veh, TMEM50B / RFU, TAOK1 / Fold change vs veh, TAOK1 / RFU, ACBD3 / Fold change vs veh, ACBD3 / RFU, TMA16 / Fold change vs veh, TMA16 / RFU, RWDD3 / Fold change vs veh, RWDD3 / RFU, BCAT1 / Fold change vs veh, BCAT1 / RFU, EDEM3 / Fold change vs veh, EDEM3 / RFU, TMEM33 / Fold change vs veh, TMEM33 / RFU, WDR75 / Fold change vs veh, WDR75 / RFU, AHCTF1 / Fold change vs veh, AHCTF1 / RFU, TFRC / Fold change vs veh, TFRC / RFU, ZDHHC17 / Fold change vs veh, ZDHHC17 / RFU, NOM1 / Fold change vs veh, NOM1 / RFU, ARL8B / Fold change vs veh, ARL8B / RFU, ZBTB11 / Fold change vs veh, ZBTB11 / RFU, TAMM41 / Fold change vs veh, TAMM41 / RFU, KIAA1704 /// LOC100996395 / Fold change vs veh, KIAA1704 /// LOC100996395 / RFU, ING1 / Fold change vs veh, ING1 / RFU, TRMT61B / Fold change vs veh, TRMT61B / RFU, FUBP3 / Fold change vs veh, FUBP3 / RFU, TP53 / Fold change vs veh, TP53 / RFU, TNKS2 / Fold change vs veh, TNKS2 / RFU, ZFP14 / Fold change vs veh, ZFP14 / RFU, ACTR2 / Fold change vs veh, ACTR2 / RFU, PPP3R1 / Fold change vs veh, PPP3R1 / RFU, PIK3R1 / Fold change vs veh, PIK3R1 / RFU, HNRNPA1 / Fold change vs veh, HNRNPA1 / RFU, RNF170 / Fold change vs veh, RNF170 / RFU, ZNF28 / Fold change vs veh, ZNF28 / RFU, RNGTT / Fold change vs veh, RNGTT / RFU, OGT / Fold change vs veh, OGT / RFU, BRD1 / Fold change vs veh, BRD1 / RFU, MARS / Fold change vs veh, MARS / RFU, ZNF655 / Fold change vs veh, ZNF655 / RFU, FAHD1 / Fold change vs veh, FAHD1 / RFU, BDP1 / Fold change vs veh, BDP1 / RFU, LRRCC1 / Fold change vs veh, LRRCC1 / RFU, ARID1A / Fold change vs veh, ARID1A / RFU, ZNF146 / Fold change vs veh, ZNF146 / RFU, ZNF330 / Fold change vs veh, ZNF330 / RFU, GPN3 / Fold change vs veh, GPN3 / RFU, C9orf123 / Fold change vs veh, C9orf123 / RFU, N4BP2L2 / Fold change vs veh, N4BP2L2 / RFU, ARFIP1 / Fold change vs veh, ARFIP1 / RFU, FAM179B / Fold change vs veh, FAM179B / RFU, BCL10 / Fold change vs veh, BCL10 / RFU, UHRF1BP1L / Fold change vs veh, UHRF1BP1L / RFU, BET1 / Fold change vs veh, BET1 / RFU, CNOT2 / Fold change vs veh, CNOT2 / RFU, ZNF268 / Fold change vs veh, ZNF268 / Fold change vs veh, ZNF507 / RFU, DGCR2 / Fold change vs veh, DGCR2 / RFU, WDSUB1 / Fold change vs veh, WDSUB1 / Fold change vs veh, HSP90B1 /// MIR3652 / RFU, ADSS / Fold change vs veh, ADSS / RFU, GK / Fold change vs veh, GK / RFU, ZNF148 / Fold change vs veh, ZNF148 / RFU, TAF9 / Fold change vs veh, TAF9 / RFU, SLC1A5 / Fold change vs veh, SLC1A5 / RFU, SLMO2 / Fold change vs veh, SLMO2 / RFU, ABCC4 / Fold change vs veh, ABCC4 / RFU, LOC101060439 /// RAP1B / Fold change vs veh, LOC101060439 /// RAP1B / RFU, RFX7 / Fold change vs veh, RFX7 / RFU, GTPBP10 / Fold change vs veh, GTPBP10 / RFU, CNEP1R1 / Fold change vs veh, CNEP1R1 / RFU, BIVM-ERCC5 /// ERCC5 / Fold change vs veh, BIVM-ERCC5 /// ERCC5 / RFU, ILF3 / Fold change vs veh, ILF3 / RFU 11762660_at / Fold change /veh 11762660_at / RFU VCAN (11757783_s_at) / Fold change /veh VCAN (11757783_s_at) / RFU DDX43 (11728927_at) / Fold change /veh DDX43 (11728927_at) / RFU KRT8 (11758188_x_at) / Fold change /veh KRT8 (11758188_x_at) / RFU NKD1 (11759106_at) / Fold change /veh NKD1 (11759106_at) / RFU SRD5A1 (11742802_a_at) / Fold change /veh SRD5A1 (11742802_a_at) / RFU TPSAB1 /// TPSB2 (11721975_s_at) / Fold change /veh TPSAB1 /// TPSB2 (11721975_s_at) / RFU GSTM3 (11746129_a_at) / Fold change /veh GSTM3 (11746129_a_at) / RFU IL23R (11737362_x_at) / Fold change /veh IL23R (11737362_x_at) / RFU TMEM51 (11727254_a_at) / Fold change /veh TMEM51 (11727254_a_at) / RFU PIWIL2 (11732686_x_at) / Fold change /veh PIWIL2 (11732686_x_at) / RFU ORM1 (11744905_x_at) / Fold change /veh ORM1 (11744905_x_at) / RFU CCDC152 (11743942_at) / Fold change /veh CCDC152 (11743942_at) / RFU ECM1 (11717891_a_at) / Fold change /veh ECM1 (11717891_a_at) / RFU IL23R (11748794_a_at) / Fold change /veh IL23R (11748794_a_at) / RFU TNFAIP8L3 (11732012_x_at) / Fold change /veh TNFAIP8L3 (11732012_x_at) / RFU MBOAT4 (11741988_at) / Fold change /veh MBOAT4 (11741988_at) / RFU 11764193_at / Fold change /veh 11764193_at / RFU TMEM53 (11763286_at) / Fold change /veh TMEM53 (11763286_at) / RFU MAGEB2 (11727129_at) / Fold change /veh MAGEB2 (11727129_at) / RFU TMEM200A (11744735_a_at) / Fold change /veh TMEM200A (11744735_a_at) / RFU CCDC152 (11751479_a_at) / Fold change /veh CCDC152 (11751479_a_at) / RFU FAM211A (11726209_a_at) / Fold change /veh FAM211A (11726209_a_at) / RFU RGS16 (11746705_a_at) / Fold change /veh RGS16 (11746705_a_at) / RFU VCAN (11755009_s_at) / Fold change /veh VCAN (11755009_s_at) / RFU RHOB (11743442_s_at) / Fold change /veh RHOB (11743442_s_at) / RFU RGS16 (11720943_a_at) / Fold change /veh RGS16 (11720943_a_at) / RFU RGS16 (11720944_at) / Fold change /veh RGS16 (11720944_at) / RFU, VPS4B / Fold change vs veh, VPS4B / RFU, CREB1 / Fold change vs veh, CREB1 / RFU, DNAJC13 / Fold change vs veh, DNAJC13 / RFU, GNAQ / Fold change vs veh, GNAQ / RFU, CDK5R1 / Fold change vs veh, CDK5R1 / RFU, ZRANB3 / Fold change vs veh, ZRANB3 / RFU, CUL4A / Fold change vs veh, CUL4A / RFU, CCNY / Fold change vs veh, CCNY / RFU, UFL1 / Fold change vs veh, UFL1 / RFU, COG3 / Fold change vs veh, COG3 / RFU, DIAPH2 / Fold change vs veh, DIAPH2 / RFU, SKA2 / Fold change vs veh, SKA2 / RFU, AFF3 / Fold change vs veh, AFF3 / RFU, LMF1 / Fold change vs veh, LMF1 / RFU, IPO11 / Fold change vs veh, IPO11 / RFU, DFFB / Fold change vs veh, DFFB / RFU, FOXP1 / Fold change vs veh, FOXP1 / RFU, CARD8 / Fold change vs veh, CARD8 / RFU, STRN3 / Fold change vs veh, STRN3 / RFU, ADK / Fold change vs veh, ADK / RFU, RASSF2 / Fold change vs veh, RASSF2 / RFU, WIPF1 / Fold change vs veh, WIPF1 / RFU, LARP1B / Fold change vs veh, LARP1B / RFU, RASA1 / Fold change vs veh, RASA1 / RFU, RB1 / Fold change vs veh, RB1 / RFU, PPFIA1 / Fold change vs veh, PPFIA1 / RFU, MAT2A / Fold change vs veh, MAT2A / RFU, CCT5 / Fold change vs veh, CCT5 / RFU, WDR92 / Fold change vs veh, WDR92 / RFU, CUX1 / Fold change vs veh, CUX1 / RFU, TTC7A / Fold change vs veh, TTC7A / RFU, TMEM135 / Fold change vs veh, TMEM135 / RFU, DEPTOR / Fold change vs veh, DEPTOR / RFU, CPM / Fold change vs veh, CPM / RFU, DNAJB6 / Fold change vs veh, DNAJB6 / RFU, CACNA2D3 / Fold change vs veh, CACNA2D3 / RFU, DTX4 / Fold change vs veh, DTX4 / RFU, TFCP2 / Fold change vs veh, TFCP2 / RFU, GMCL1 /// GMCL1P1 / Fold change vs veh, GMCL1 /// GMCL1P1 / RFU, AEBP2 / Fold change vs veh, AEBP2 / RFU, SNHG1 /// SNORD22 /// SNORD25 /// SNORD26 /// SNORD27 /// SNORD28 /// SNORD29 /// SNORD31 / Fold change vs veh, SNHG1 /// SNORD22 /// SNORD25 /// SNORD26 /// SNORD27 /// SNORD28 /// SNORD29 /// SNORD31 / Fold change (Aza/veh), C12orf56 (ProbeSet 11735607_a_at) / Fold change (ACY-1035/veh), C12orf56 (ProbeSet 11735607_a_at) / Fold change (Aza/veh), FGFR1OP (ProbeSet 11751329_s_at) / Fold change (ACY-1035/veh), FGFR1OP (ProbeSet 11751329_s_at) / Fold change (Aza/veh), VPS36 (ProbeSet 11739960_a_at) / Fold change (ACY-1035/veh), VPS36 (ProbeSet 11739960_a_at) / RFU SYPL1 (11715823_x_at) / Fold change /veh SYPL1 (11715823_x_at) / RFU IGFBP7 (11715501_s_at) / Fold change /veh IGFBP7 (11715501_s_at) / RFU REEP3 (11722064_at) / Fold change /veh REEP3 (11722064_at) / RFU IGLL1 (11728026_x_at) / Fold change /veh IGLL1 (11728026_x_at): dose or concentration left out as unconfirmed
Details: ProbeSet 11717523_x_at; LIST B

Nc1ncn([C@@H]2O[C@H](CO)[C@@H](O)[C@H]2O)c(=O)n1 [azacitidine] was tested, and the “Fold change vs veh, TMEM50B” value was 0.85.

From article PMC5218480 (PLoS ONE, 2017)
